Assay results published in patent publication US12691101B2, “Compound and method for preventing or treating of respiratory diseases comprising the same as an active ingredient” (YONSEI UNIVERSITY, UNIVERSITY - INDUSTRY FOUNDATION (UIF), priority 2019, dated 2026).

Columns and labels:
HNE cells = experiment: IL-4 and IL-13-induced goblet cell hyperplasia in HNE cells, PAS staining; format: cell-based, human; settings: pretreatment
Experimental: (A) The MUC5AC mRNA expression level was determined at the indicated time after treatment of F56 ([…]) in IL-4 (10 ng/ml)-treated HNE cells (mean±S.E., n=4). (B) Periodic acid-Schiff (PAS) staining showing goblet cell hyperplasia of IL-4 and IL-13 (10 ng/ml)-treated HNE cells in presence or absence of F56 ([…]) at Day 7. (C) Measurement of the total volume of ASL and fluid meniscus in HNE cells expressing wild-type (wt) or mutant (mt) PDS. The HNE cells were treated with IL-4 (10 ng/ml, 48 hours) in presence or absence of […]. (D) Representative image of a transwell insert having normal HNE cells. Arrows indicate the fluid meniscus of HNE cells treated with IL-4 (10 ng/ml, 48 hours) in presence or absence of […] F56. (E) Representative protein expression result of pendrin in IL-4 and IL-13-treated HNE cells. (F) Measurement of the total volume of ASL and fluid meniscus. The HNE cells were treated with IL-13 (10 ng/ml, 48 hours) in presence or absence of 30 mM F56 (mean±S.E., n=3-4). * P<0.05, *** P<0.001. Size bar, 30 μm.
For evaluation of airway inflammation, left lung was fixed in 4% paraformaldehyde overnight and embedded in paraffin. […] The inflammation score showing the severity of bronchial inflammation was evaluated by 3 blind observers using a method reported conventionally. […]

mouse pendrin (mPDS) = molecular target: T1, mouse pendrin (mPDS) (Mus musculus, UniProt Q9R155); experiment: Mouse pendrin-mediated Cl^−/I^− exchange activity in CHO-K1 cells; format: cell-based
T1 construct: expressed in transfected cells; host or cells: CHO-K1
T1 sequence (Q9R155 whole entry): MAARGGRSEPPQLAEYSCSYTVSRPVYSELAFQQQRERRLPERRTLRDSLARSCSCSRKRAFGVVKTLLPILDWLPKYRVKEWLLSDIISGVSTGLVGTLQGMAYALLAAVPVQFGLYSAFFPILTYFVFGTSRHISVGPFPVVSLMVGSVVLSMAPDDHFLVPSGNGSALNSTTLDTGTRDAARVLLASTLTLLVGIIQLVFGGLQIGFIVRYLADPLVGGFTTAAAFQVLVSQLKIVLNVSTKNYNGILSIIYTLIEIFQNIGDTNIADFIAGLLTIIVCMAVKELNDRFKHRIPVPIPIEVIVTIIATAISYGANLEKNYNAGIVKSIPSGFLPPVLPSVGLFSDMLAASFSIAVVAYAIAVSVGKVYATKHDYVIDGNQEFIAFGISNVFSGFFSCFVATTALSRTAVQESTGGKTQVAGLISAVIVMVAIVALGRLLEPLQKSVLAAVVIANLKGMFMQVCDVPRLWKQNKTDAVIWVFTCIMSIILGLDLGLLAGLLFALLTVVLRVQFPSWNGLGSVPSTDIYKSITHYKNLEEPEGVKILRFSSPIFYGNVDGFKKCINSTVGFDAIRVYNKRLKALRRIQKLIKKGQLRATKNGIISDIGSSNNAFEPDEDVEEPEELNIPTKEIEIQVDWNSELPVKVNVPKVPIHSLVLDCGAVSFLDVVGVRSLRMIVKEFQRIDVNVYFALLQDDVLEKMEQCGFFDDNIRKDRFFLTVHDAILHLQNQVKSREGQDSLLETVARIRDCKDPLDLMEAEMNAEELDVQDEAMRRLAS
Experimental: (§1) (A) The inhibition of mouse pendrin (mPDS)-mediated Cl^−/I^− exchange activity by F56 was measured in CHO-K1 cells (mean±S.E., n=5). The indicated concentration of F56 was pretreated for 10 minutes. (B) Summary of dose-response for inhibition of the human pendrin (hPDS)-mediated (closed circle, FIG. (a), C) and mPDS-mediated (open circle) Cl^−/I^− exchange activity. (C-F) Representative traces of intracellular pH in CHO-K1 cells expressing SLC26A3, SLC26A6, SLC26A7 and SLC26A9 were shown. The application of Cl^− free solution induced intracellular alkalization by Cl^−/HCO3^− exchange. The indicated concentration of F56 was pretreated for 10 minutes. (G) the effect of F56 (100 μM) on the CFTR chloride channel activity was measured in FRT cells expressing human CFTR. The CFTR current was activated by 20 μM forskolin and was inhibited by 10 μM CFTRinh-172. (H) The effect of F56 (100 μM) on the AN01 chloride channel activity was measured in FRT cells expressing human AN01. Before 10 minutes prior to AN01 activation by 100 μM ATP, F56 was added. (Right) Peak current summary (mean±S.E., n=3). (I) The effect of F56 on the hERG (Kv11.1) potassium channel activity was measured in HEK293T cells expressing human Kv11.1 (mean±S.E., n=4). […] (J) The effect of F56 on the 5-HT2A channel activity was measured in FRT cells expressing human 5-HT2A (mean±S.E., n=4). […]

tracheal smooth muscle = experiment: Tracheal contraction in rat tracheal ring; settings: 30 μM after carbachol-induced contraction
Experimental: All experiments were performed using 4-week-old SD male rats. The experimental protocol was approved by the Animal Ethics Committee of Yonsei University. The rats were sacrificed and tracheal strips were separated. After the connective tissue was separated, the organ was cut into 3 mm long rings. The organ was mounted for tension recording under 1 g tension and equilibrated for 1 hour in an organ bath containing 25 mL of oxygenated physiological solution. The solution was gassed successively with 95% 02 and 5% CO2 at 37° C. After 1 hours of stabilization, 0.3 μM carbachol (CCh) was used to induce a sustained contraction reaction in the organ bath. Once the sustained tension was established, F56 (30 μM) and forskolin (10 μM) and IBMX (100 μM) were applied to the bath. The organ contraction was measured using FORT 10G converter (World Precision Instruments, Sarasota, FL, USA) and PowerLab 4/35 (AD Instruments, Castle Hill, Australia). Data were recorded and analyzed using Labchart Pro 7 (AD Instruments).

SLC26A3 = molecular target: T2, SLC26A3 (Homo sapiens, UniProt P40879); experiment: Cl^−/HCO3^− exchange in CHO-K1 cells expressing SLC26A3; format: cell-based; settings: weakly inhibited
T2 construct: expressed in transfected cells; host or cells: CHO-K1
T2 sequence (P40879 whole entry, species assumed): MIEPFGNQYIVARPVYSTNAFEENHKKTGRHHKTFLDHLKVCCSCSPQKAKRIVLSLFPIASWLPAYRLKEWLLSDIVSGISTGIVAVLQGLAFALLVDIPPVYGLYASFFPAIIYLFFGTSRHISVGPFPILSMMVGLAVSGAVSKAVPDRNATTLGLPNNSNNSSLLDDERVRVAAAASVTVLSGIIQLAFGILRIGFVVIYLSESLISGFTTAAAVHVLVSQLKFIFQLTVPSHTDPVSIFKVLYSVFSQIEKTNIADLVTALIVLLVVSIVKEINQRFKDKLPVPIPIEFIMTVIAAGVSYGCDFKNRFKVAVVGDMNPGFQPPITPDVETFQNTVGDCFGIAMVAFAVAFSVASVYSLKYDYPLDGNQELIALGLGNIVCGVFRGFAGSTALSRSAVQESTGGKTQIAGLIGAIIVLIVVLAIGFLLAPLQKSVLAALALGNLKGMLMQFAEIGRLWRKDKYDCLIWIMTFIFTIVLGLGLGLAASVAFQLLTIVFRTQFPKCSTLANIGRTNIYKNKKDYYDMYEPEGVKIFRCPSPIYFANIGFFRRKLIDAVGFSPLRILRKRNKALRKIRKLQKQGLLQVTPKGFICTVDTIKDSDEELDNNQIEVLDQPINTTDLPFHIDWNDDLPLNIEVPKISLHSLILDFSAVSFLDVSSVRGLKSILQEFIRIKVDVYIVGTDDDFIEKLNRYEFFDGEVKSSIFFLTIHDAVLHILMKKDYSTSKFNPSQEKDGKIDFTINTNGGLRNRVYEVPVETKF
Experimental: as §1

SLC26A6 = molecular target: T3, SLC26A6 (Homo sapiens, UniProt Q9BXS9); experiment: Cl^−/HCO3^− exchange in CHO-K1 cells expressing SLC26A6; format: cell-based; settings: weakly inhibited
T3 construct: expressed in transfected cells; host or cells: CHO-K1
T3 sequence (Q9BXS9 whole entry, species assumed): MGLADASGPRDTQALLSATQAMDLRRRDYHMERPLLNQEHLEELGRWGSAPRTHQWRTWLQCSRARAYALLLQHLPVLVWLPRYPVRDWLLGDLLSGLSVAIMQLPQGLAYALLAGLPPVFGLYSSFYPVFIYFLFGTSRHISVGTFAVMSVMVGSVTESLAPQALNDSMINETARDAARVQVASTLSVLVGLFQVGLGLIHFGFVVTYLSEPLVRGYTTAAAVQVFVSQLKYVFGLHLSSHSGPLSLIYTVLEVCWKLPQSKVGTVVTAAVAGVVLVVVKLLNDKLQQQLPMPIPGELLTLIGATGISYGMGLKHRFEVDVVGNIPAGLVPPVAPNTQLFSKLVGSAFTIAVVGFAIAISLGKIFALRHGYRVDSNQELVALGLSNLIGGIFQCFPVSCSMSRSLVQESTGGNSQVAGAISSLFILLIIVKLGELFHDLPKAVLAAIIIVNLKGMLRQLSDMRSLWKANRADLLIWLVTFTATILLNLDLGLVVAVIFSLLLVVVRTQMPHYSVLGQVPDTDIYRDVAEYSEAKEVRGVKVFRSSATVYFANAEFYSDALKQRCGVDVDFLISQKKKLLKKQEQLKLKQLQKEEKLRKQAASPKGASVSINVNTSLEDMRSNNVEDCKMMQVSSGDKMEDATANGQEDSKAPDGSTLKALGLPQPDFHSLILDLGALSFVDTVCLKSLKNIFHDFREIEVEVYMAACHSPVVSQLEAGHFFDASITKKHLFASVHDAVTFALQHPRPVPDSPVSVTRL
Experimental: as §1

NIH3T3 cells = experiment: Cell viability, MTS colorimetric analysis, NIH3T3; format: cell-based; settings: 24 hours, up to 30 μM
Experimental: (A) Pendrin-mediated Cl^−/I^− exchange activity (mean±S.E., n=5). The indicated concentration of F56 was pretreated for 10 minutes. (B, C) Representative tracing of intracellular pH. The application of Cl^− free solution induced intracellular alkalization through pendrin-mediated Cl^−/HCO3^− and Cl^−/OH^− exchange activity. The indicated concentration of F56 was pretreated for 10 minutes. (D-F) The pendrin-mediated Cl^−/I^− exchange activity was measured in CHO-K1 cells expressing human pendrin. The indicated concentration of F56, PDSinh-A01 and PDSinh-C01 was pretreated for 10 minutes. (G) Summary of dose-response of F56, PDSinh-A01 and PDSinh-C01 (mean±S.E., n=3). (H, I) Effect of F56, PDSinh-A01 and PDSinh-C01 on the cell viability in NIH3T3 (H) and CHO-K1 (I) cells. The cells were treated with F56, PDSinh-A01 and PDSinh-C01 for 24 hours. The cell viability was measured by MTS colorimetric analysis (mean±S.E., n=3). NTC, non-transfected cells.
The cells were treated with F10 for 24 hours. The cell viability was determined by MTS colorimetric analysis (mean±S.E., n=3).

| Compound | IL-4 and IL-13-induced goblet cell hyperplasia (HNE cells) | inhibition of mouse versus human pendrin-mediated exchange (mouse pendrin (mPDS)) | effect on tracheal smooth muscle (tracheal smooth muscle) | IC50 (SLC26A3) | IC50 (SLC26A6) | cytotoxicity in NIH3T3 cells (NIH3T3 cells) |
| --- | --- | --- | --- | --- | --- | --- |
| CC(C)(C)c1ccc(C2=NC(=Cc3cccs3)C(=O)O2)cc1 [F56, 2-(4-(tert-butyl)phenyl)-4-(thiophen-2-ylmethylene)oxazol-5(4H)-one] | significantly reduced | almost the same efficacy | did not affect | > 100 µM | > 100 µM | did not show cytotoxicity up to 30 μM |
| CC(C)(C)c1ccc(C2=NC(=Cc3ccc[nH]3)C(=O)O2)cc1 [F10, 4-((1H-pyrrol-2-yl)methylene)-2-(4-(tert-butyl)phenyl)oxazol-5 (4H)-one] |  |  |  |  |  | did not show any cytotoxicity up to 30 μM |
